Target: WDR5 (Homo sapiens (Human), UniProt P61964)
Experiment: Surface Plasmon Resonance (SPR) assay, KD and residence time
Assay type: binding
Conditions: surface plasmon resonance (SPR) assay; read-out: WDR5 binding affinity (KD)

Row | Kd [nM] | SMILES
1 | 35.4 | C[C@@H]1CN(c2cc(F)c(-c3cncc(C(F)(F)F)c3)cc2NC(=O)c2cn(C)c(=O)cc2C(F)(F)F)C[C@H](C)N1C [Example 180, N-[4-fluoro-2-[(3R,5S)-3,4,5-trimethylpiperazin-1-yl]-5-[5-(trifluoromethyl)pyridin-3-yl]phenyl]-1-methyl-6-oxo-4-(trifluoromethyl)pyridine-3-carboxamide]
2 | 9.8 | CN(C)[C@@H]1CCN(c2cc(F)c(-c3cnc(N4CCOCC4)nc3)cc2NC(=O)c2cn(C)c(=O)cc2C(F)(F)F)C1 [Example 184, N-[4-fluoro-5-(2-morpholin-4-ylpyrimidin-5-yl)-2-[(3R)-3-(dimethylamino)pyrrolidin-1-yl]phenyl]-1-methyl-6-oxo-4-(trifluoromethyl)pyridine-3-carboxamide]
3 | 29.8 | CN(C)[C@@H]1CCN(c2cc(F)c(-c3cnc(N4CCOCC4)nc3)cc2NC(=O)c2c[nH]nc2C(F)(F)F)C1 [Example 185, N-[4-fluoro-5-(2-morpholin-4-ylpyrimidin-5-yl)-2-[(3R)-3-(dimethylamino)pyrrolidin-1-yl]phenyl]-3-(trifluoromethyl)-1H-pyrazole-4-carboxamide]
4 | 40.2 | C[C@@H]1CN(c2cc(F)c(-c3cnc(N4CCOCC4)nc3)cc2NC(=O)c2cccc(C(F)(F)F)c2)C[C@H](C)N1C [Example 186, N-[4-fluoro-5-(2-morpholin-4-ylpyrimidin-5-yl)-2-[(3R,5S)-3,4,5-trimethylpiperazin-1-yl]phenyl]-3-(trifluoromethyl)benzamide]
5 | 209 | C[C@@H]1CN(c2cc(F)c(-c3cnc(N4CCOCC4)nc3)cc2NC(=O)c2cncnc2C(F)(F)F)C[C@H](C)N1C [Example 187, N-[4-fluoro-5-(2-morpholin-4-ylpyrimidin-5-yl)-2-[(3R,5S)-3,4,5-trimethylpiperazin-1-yl]phenyl]-4-(trifluoromethyl)pyrimidine-5-carboxamide]
6 | 93.2 | C[C@@H]1CN(c2cc(F)c(-c3cnc(N4CCOCC4)nc3)cc2NC(=O)c2scnc2C(F)(F)F)C[C@H](C)N1C [Example 188, N-[4-fluoro-5-(2-morpholin-4-ylpyrimidin-5-yl)-2-[(3R,5S)-3,4,5-trimethylpiperazin-1-yl]phenyl]-4-(trifluoromethyl)-1,3-thiazole-5-carboxamide]
7 | 442 | C[C@@H]1CN(c2cc(F)c(-c3cnc(N4CCOCC4)nc3)cc2NC(=O)c2cc(C(F)(F)F)ccc2F)C[C@H](C)N1C [Example 189, 2-fluoro-N-[4-fluoro-5-(2-morpholin-4-ylpyrimidin-5-yl)-2-[(3R,5S)-3,4,5-trimethylpiperazin-1-yl]phenyl]-5-(trifluoromethyl)benzamide]
8 | 14.7 | COc1cc(F)cc(C(=O)Nc2cc(-c3cnc(N4CCOCC4)nc3)c(F)cc2N2C[C@@H](C)N(C)[C@@H](C)C2)c1 [Example 190, 3-fluoro-N-[4-fluoro-5-(2-morpholin-4-ylpyrimidin-5-yl)-2-[(3R,5S)-3,4,5-trimethylpiperazin-1-yl]phenyl]-5-methoxybenzamide]
9 | 21.5 | C[C@@H]1CN(c2cc(F)c(-c3ccc(N4CCOCC4)cc3)cc2NC(=O)c2cc(Cl)cc(Cl)c2)C[C@H](C)N1C [Example 191, 3,5-dichloro-N-[4-fluoro-5-(4-morpholin-4-ylphenyl)-2-[(3R,5S)-3,4,5-trimethylpiperazin-1-yl]phenyl]benzamide]
10 | 1.66 | C[C@@H]1CN(c2cc(F)c(-c3cnc(N4CCCN(C)CC4)nc3)cc2NC(=O)c2ccc(F)cc2C(F)(F)F)C[C@H](C)N1C [Example 203, 4-fluoro-N-[4-fluoro-5-[2-(4-methyl-1,4-diazepan-1-yl)pyrimidin-5-yl]-2-[(3R,5S)-3,4,5-trimethylpiperazin-1-yl]phenyl]-2-(trifluoromethyl)benzamide]
11 | 13.8 | C[C@@H]1CN(c2cc(F)c(-c3ccc(N4CCOCC4)cc3)cc2NC(=O)c2cn(C)c(=O)cc2C(F)(F)F)C[C@H](C)N1C [Example 204, N-[4-fluoro-5-(4-morpholin-4-ylphenyl)-2-[(3R,5S)-3,4,5-trimethylpiperazin-1-yl]phenyl]-1-methyl-6-oxo-4-(trifluoromethyl)pyridine-3-carboxamide]
12 | 8.15 | C[C@@H]1CN(c2cc(F)c(-c3cncc(C#N)c3)cc2NC(=O)c2c[nH]c(=O)cc2C(F)(F)F)C[C@H](C)N1C [Example 205, N-[5-(5-cyanopyridin-3-yl)-4-fluoro-2-[(3R,5S)-3,4,5-trimethylpiperazin-1-yl]phenyl]-6-oxo-4-(trifluoromethyl)-1H-pyridine-3-carboxamide]
13 | 3.85 | C[C@@H]1CN(c2cc(F)c(-c3cncc(Cl)c3)cc2NC(=O)c2c[nH]c(=O)cc2C(F)(F)F)C[C@H](C)N1C [Example 206, N-[5-(5-chloropyridin-3-yl)-4-fluoro-2-[(3R,5S)-3,4,5-trimethylpiperazin-1-yl]phenyl]-6-oxo-4-(trifluoromethyl)-1H-pyridine-3-carboxamide]
14 | 6.69 | C[C@@H]1CN(c2cc(F)c(-c3cccnc3OC3CCCCC3)cc2NC(=O)c2c[nH]c(=O)cc2C(F)(F)F)C[C@H](C)N1C [Example 207, N-[5-(2-cyclohexyloxypyridin-3-yl)-4-fluoro-2-[(3R,5S)-3,4,5-trimethylpiperazin-1-yl]phenyl]-6-oxo-4-(trifluoromethyl)-1H-pyridine-3-carboxamide]
15 | 0.57 | COc1ccc(CC(=O)N2CC=C(c3cc(NC(=O)c4c[nH]c(=O)cc4C(F)(F)F)c(N4C[C@@H](C)N(C)[C@@H](C)C4)cc3F)CC2)cc1 [Example 208, N-[4-fluoro-5-[1-[2-(4-methoxyphenyl)acetyl]-3,6-dihydro-2H-pyridin-4-yl]-2-[(3R,5S)-3,4,5-trimethylpiperazin-1-yl]phenyl]-6-oxo-4-(trifluoromethyl)-1H-pyridine-3-carboxamide]
16 | 9.53 | COCCOc1ccc(-c2cc(NC(=O)c3cn(C)c(=O)cc3C(F)(F)F)c(N3C[C@@H](C)N(C)[C@@H](C)C3)cc2F)cn1 [Example 209, N-(4-fluoro-5-(6-(2-methoxyethoxy)pyridin-3-yl)-2-((3S,5R)-3,4,5-trimethylpiperazin-1-yl)phenyl)-1-methyl-6-oxo-4-(trifluoromethyl)-1,6-dihydropyridine-3-carboxamide]
17 | 3.86 | C[C@@H]1CN(c2cc(F)c(-c3cnc(N4CCCC4)nc3)cc2NC(=O)c2cn(C)c(=O)cc2C(F)(F)F)C[C@H](C)N1C [Example 210, N-[4-fluoro-5-(2-pyrrolidin-1-ylpyrimidin-5-yl)-2-[(3R,5S)-3,4,5-trimethylpiperazin-1-yl]phenyl]-1-methyl-6-oxo-4-(trifluoromethyl)pyridine-3-carboxamide]
18 | 120 | C[C@@H]1CN(c2cc(F)c(-c3cnc(N4CCOCC4)nc3)cc2NC(=O)c2sccc2C(F)(F)F)C[C@H](C)N1C [Example 211, N-[4-fluoro-5-(2-morpholin-4-ylpyrimidin-5-yl)-2-[(3R,5S)-3,4,5-trimethylpiperazin-1-yl]phenyl]-3-(trifluoromethyl)thiophene-2-carboxamide]
19 | 2.71 | C[C@@H]1CN(c2cc(F)c(-c3cnc(N4CCOCC4)nc3)cc2NC(=O)c2cc(Cl)c(F)c(Cl)c2)C[C@H](C)N1C [Example 212, 3,5-dichloro-4-fluoro-N-[4-fluoro-5-(2-morpholin-4-ylpyrimidin-5-yl)-2-[(3R,5S)-3,4,5-trimethylpiperazin-1-yl]phenyl]benzamide]
20 | 6.91 | C[C@@H]1CN(c2cc(F)c(-c3cnc(N4CCOCC4)nc3)cc2NC(=O)c2cccc(Cl)c2Cl)C[C@H](C)N1C [Example 213, 2,3-dichloro-N-[4-fluoro-5-(2-morpholin-4-ylpyrimidin-5-yl)-2-[(3R,5S)-3,4,5-trimethylpiperazin-1-yl]phenyl]benzamide]
21 | 2.25 | C[C@@H]1CN(c2cc(F)c(-c3cnc(N(C)C)c(C#N)c3)cc2NC(=O)c2c[nH]c(=O)cc2C(F)(F)F)C[C@H](C)N1C [Example 220, N-[5-[5-cyano-6-(dimethylamino)pyridin-3-yl]-4-fluoro-2-[(3R,5S)-3,4,5-trimethylpiperazin-1-yl]phenyl]-6-oxo-4-(trifluoromethyl)-1H-pyridine-3-carboxamide]
22 | 1.34 | C[C@@H]1CN(c2cc(F)c(-c3cnc(N4CCOCC4)c(Cl)c3)cc2NC(=O)c2c[nH]c(=O)cc2C(F)(F)F)C[C@H](C)N1C [Example 222, N-[5-(5-chloro-6-morpholin-4-ylpyridin-3-yl)-4-fluoro-2-[(3R,5S)-3,4,5-trimethylpiperazin-1-yl]phenyl]-6-oxo-4-(trifluoromethyl)-1H-pyridine-3-carboxamide]
23 | 1.63 | C[C@@H]1CN(c2cc(F)c(-c3cnc4c(c3)OCCO4)cc2NC(=O)c2c[nH]c(=O)cc2C(F)(F)F)C[C@H](C)N1C [Example 223, N-[5-(2,3-dihydro-[1,4]dioxino[2,3-b]pyridin-7-yl)-4-fluoro-2-[(3R,5S)-3,4,5-trimethylpiperazin-1-yl]phenyl]-6-oxo-4-(trifluoromethyl)-1H-pyridine-3-carboxamide]
24 | 3000 | CN1CCN(c2cc(F)c(-c3cnc(N4CCOCC4)nc3)cc2NC(=O)c2c[nH]c(=O)cc2C(F)(F)F)CC1(C)C [Example 225, N-[4-fluoro-5-(2-morpholin-4-ylpyrimidin-5-yl)-2-(3,3,4-trimethylpiperazin-1-yl)phenyl]-6-oxo-4-(trifluoromethyl)-1H-pyridine-3-carboxamide]
25 | 7.99 | C[C@@H]1CN(c2cc(F)c(-c3ccnc(N4CCOCC4)c3)cc2NC(=O)c2cn(C)c(=O)cc2C(F)(F)F)C[C@H](C)N1C [Example 226, N-[4-fluoro-5-(2-morpholin-4-ylpyridin-4-yl)-2-[(3R,5S)-3,4,5-trimethylpiperazin-1-yl]phenyl]-1-methyl-6-oxo-4-(trifluoromethyl)pyridine-3-carboxamide]
26 | 9.14 | C[C@@H]1CN(c2cc(F)c(-c3ccc(N4CCCC4)cc3)cc2NC(=O)c2cn(C)c(=O)cc2C(F)(F)F)C[C@H](C)N1C [Example 227, N-[4-fluoro-5-(4-pyrrolidin-1-ylphenyl)-2-[(3R,5S)-3,4,5-trimethylpiperazin-1-yl]phenyl]-1-methyl-6-oxo-4-(trifluoromethyl)pyridine-3-carboxamide]

Reference: patent US11319299B2, “Substituted carboxamides as inhibitors of WDR5 protein-protein binding” (PROPELLON THERAPEUTICS INC., priority 2016, dated 2022)
